Read-outs that look alike come from different tables or passages of the source.
Legend:
[1] = tested on: Hh pathway (Gli-luciferase) provoked by Gli2; assay: Dual luciferase reporter assay, Hh activity initiated by ectopic Gli2-HA in light II cells; format: cell-based
From the text: (§1) The TCF/LEF luciferase reporter plasmid, NF-κB luciferase reporter plasmid, and TK-Renilla luciferase plasmid were purchased from Promega (Madison, WI, USA). Smo plasmid was purchased from Origene (Rockville, MD, USA). The Smo mutant plasmids were generated from wild type Smo plasmid using QuickChange Site-Directed Mutagenesis kit from Agilent (Santa Clara, CA, USA) and confirmed by sequencing. Information on Smo mutants plasmids is provided in Supplementary data 2. The Gli1 plasmid and Gli2-HA plasmid were obtained from Addgene (Cambridge, MA, USA). Transient transfections were performed by Lipofectamine 2000 reagent from Invitrogen (Grand Island, NY, USA) according to the manufacturer's instructions.
(§2) Cells seeded in 96-well plates were treated with various treatments as indicated. The luciferase activity in the cell lysates was measured using Dual-Luciferase Reporter Assay System (Promega, Madison, WI, USA) according to the manufacturer's instructions in a luminometer (Molecular Devices, Sunnyvale, CA). The firefly luciferase values were normalized to Renilla values.

Sufu/Gli1 interaction = assay: Co-immunoprecipitation of Sufu with Gli1 in NIH-3T3 cells; format: cell-based; conditions: 1 µM
Protocol: Cells were lysed in immunoprecipitation lysis buffer (#87787, Thermo Fisher Scientific) supplemented with protease and phosphatase inhibitor cocktail. Cell lysates were incubated with the indicated antibodies at 4 °C overnight, followed by incubation with Protein A/G Plus-Agarose beads (Santa Cruz Biotechnology) at 4 °C for 4 h. Immunoprecipitates were collected by centrifugation and washed three times with washing buffer. The complex was separated from the beads and then boiled for 10 min. The immunoprecipitates and inputs were analyzed by SDS-PAGE and immunoblot using the antibodies as indicated.

[2] = tested on: IKZF1, IKZF3, SALL4, GSPT1; assay: Western blot of CRBN neo-substrates in NIH-3T3 cells; format: cell-based; conditions: 24 h
Protocol: Cells were lysed in cell lysis buffer (50 mM Tris pH 8.0, 150 mM NaCl, 10% glycerol, 1 mM EDTA, 50 mM NaF, and 0.1% NP-40) supplemented with protease and phosphatase inhibitors. Total protein extracts of tissues were generated in radioimmunoprecipitation (RIPA) assay lysis buffer containing complete protease and phosphatase inhibitor cocktail. Protein content was quantified using the Pierce BCA Protein Assay Kit (#23225, Thermo Fisher Scientific). The proteins were separated by SDS-PAGE, electrophoretically transferred to polyvinylidene difluoride (PVDF) blotting membranes (#LC2002, Thermo Fisher Scientific), and subjected to routine immunoblot analysis with primary antibodies as follows: anti-Bcl-2 (#15071), anti-Mcl-1 (#94296), anti-VHL (#68547), anti-CRBN (#71810), and anti-Sufu (#2522) were obtained from Cell Signaling Technology (Danvers, Massachusetts, USA); anti-Bcl-xL (#ab32370), anti-Gli1 (#ab134906), and anti-Smoothened (#ab236465) were obtained from Abcam (Cambridge, CB2 0AX, UK); anti-GAPDH (#60004-1-Ig) and anti-β-tubulin (#10094-1-AP) were purchased from Proteintech Group, Inc. (Rosemont, IL 60018, USA). The results were quantified by densitometry using ImageJ software (NIH). […]
hydrochloride; DMAP = 4-dimethylaminopyridine; TFA = trifluoroacetic acid; DMF = N,N-dimethylformamide. […]

[3] = tested on: Hh pathway (Gli-luciferase) provoked by Smo WT / Smo mutants; assay: Dual luciferase reporter assay, Hh activity induced by ectopic Smo WT or Smo mutants in light II cells; format: cell-based; conditions: for IC50: 36 h
From the text: as §1, §2

Bcl-2 = Bcl-2 (Homo sapiens, UniProt P10415); assay: Competitive fluorescence polarization assay, Bcl-2 / FAM-Bax; format: binding; conditions: Bcl-2 100 nM, FAM-Bax 5 nM
Protocol: (§3) Competitive fluorescence polarization assays were carried out in black-walled plates in assay buffer (20 mM Na2HPO4 ·12H2O, 20 mM NaH2PO4·12H2O, 1 mM EDTA, 50 mM NaCl, 0.05% PF-68). The use of protein/peptide probe pairs was as follows: Bcl-xL (5 nM) and FAM-Bad (5 nM), Bcl-2 (100 nM) and FAM-Bax (5 nM), Mcl-1 (100 nM) and FAM-Bim (5 nM). Assay buffer, proteins, drugs, and peptides were added to the assay plates sequentially. The assay plates were slightly shaken for 3 min and incubated for 30 min at room temperature. The fluorescence polarization was measured on a Synergy 2 reader (BioTek).

Bcl-xL = Bcl-xL (Homo sapiens, UniProt Q07817); assay: Competitive fluorescence polarization assay, Bcl-xL / FAM-Bad; format: binding; conditions: Bcl-xL 5 nM, FAM-Bad 5 nM
Protocol: as §3

[4] = tested on: bone growth of young mice; assay: Bone growth of young mice (body weight, Micro-CT, H&E, IHC); format: in vivo, mouse
Protocol: Skeleton Micro-CT images of mice were taken under anesthesia. The femurs were fixed and stored in 4% PFA at 4 °C. Mice and femurs were scanned using Inveon PET-CT (Siemens). Bone tissues were computed with Inveon Acquisition Workplace (IAW). Image data were visualized and analyzed by Inveon Viewer.
Femurs were fixed in 4% PFA and decalcified in 14% EDTA for 2 weeks at 4 °C. Bone tissues were embedded in paraffin. Thin sections were stained with hematoxylin and eosin (H&E) according to the manufacturer's instructions. For immunohistochemistry (IHC), paraffin-embedded sections of femurs were baked at 60 °C for 20 min, deparaffinized by xylene for 25 min, rehydrated through ethanol series, and incubated with citrate buffer at 95 °C for 20 min for antigen retrieval. Sections were incubated with the primary antibodies as indicated overnight at 4 °C, followed by goat anti-rabbit secondary antibody. The primary antibodies used in this study include Bcl-xL (1:2000, ab178844, Abcam) and Gli1 (1:100, 101156-T10, Sino Biological).

Bcl-xL, sequence (Q07817 whole entry, species assumed): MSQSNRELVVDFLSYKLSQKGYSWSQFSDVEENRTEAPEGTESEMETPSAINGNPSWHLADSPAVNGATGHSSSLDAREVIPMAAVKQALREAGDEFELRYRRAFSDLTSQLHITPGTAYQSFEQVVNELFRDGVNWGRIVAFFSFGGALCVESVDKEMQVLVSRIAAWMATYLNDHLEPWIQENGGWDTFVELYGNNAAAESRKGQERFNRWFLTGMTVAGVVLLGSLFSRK
Bcl-2, sequence (P10415 whole entry, species assumed): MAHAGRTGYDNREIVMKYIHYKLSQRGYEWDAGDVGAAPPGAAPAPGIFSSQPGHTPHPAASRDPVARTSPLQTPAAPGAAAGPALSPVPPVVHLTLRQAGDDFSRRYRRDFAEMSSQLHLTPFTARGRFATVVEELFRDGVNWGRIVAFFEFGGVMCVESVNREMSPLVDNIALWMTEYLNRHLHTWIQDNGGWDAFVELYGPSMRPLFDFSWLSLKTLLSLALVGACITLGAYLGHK

SMILES: CC1(C)CCC(c2ccc(Cl)cc2)=C(CN2CCN(c3ccc(C(=O)NS(=O)(=O)c4ccc(NCCCN5CCN(CCCC#Cc6cccc7c6CN(C6CCC(=O)NC6=O)C7=O)CC5)c(S(=O)(=O)C(F)(F)F)c4)cc3)CC2)C1 (centres unmarked) [SIAIS361034]
- Hh activity evoked by ectopic expression of Gli2 [1]: significant potency
- IC50 ([1]; ectopic Gli2-HA, 36 h): 85.1 nM
- interaction of Sufu with Gli1 (Sufu/Gli1 interaction): increased the interaction of Sufu with Gli1
- abundance of CRBN neo-substrates IKZF1, IKZF3, SALL4, GSPT1 [2]: did not affect abundance
- IC50 shift between Smo wild-type and mutations ([3]; Gli-luciferase): no significant IC50 shift
- Hh activity provoked by wild type Smo and Smo mutants ([3]; Smo WT, D473H, H231R, W281C, W535L, L412F, F460L, GDC-0449 10 μM (Figure S3B-D)): obviously inhibited
- IC50 ([3]; ectopic Smo D473H, read-out: IC50 value, Smo D473H): 188 nM
- IC50 ([3]; ectopic Smo F460L, read-out: IC50 value, Smo F460L): 147 nM
- IC50 ([3]; ectopic Smo H231R, read-out: IC50 value, Smo H231R): 117 nM
- IC50 ([3]; ectopic Smo L412F, read-out: IC50 value, Smo L412F): 40.4 nM
- IC50 ([3]; ectopic Smo W281C, read-out: IC50 value, Smo W281C): 92.9 nM
- IC50 ([3]; ectopic Smo W535L, read-out: IC50 value, Smo W535L): 171 nM
- IC50 ([3]; ectopic Smo WT, read-out: IC50 value, Smo WT): 186 nM
- Ki (Bcl-2): 15.1 nM
- Ki (Bcl-xL): 37.3 nM
- columnar organization of chondrocytes in the growth plate (H&E) ([4]; cross sections of the femur, mice treated P12 to P16): not destroyed
- skeleton (Micro-CT) ([4]; mice at 6 weeks of age, treated P12 to P16): no abnormalities in the skeleton
- growth plate of femurs (Micro-CT) compared with Vehicle ([4]; mice treated P12 to P16): no significant difference
- levels of Bcl-xL in femurs (IHC) ([4]; mice treated P12 to P16): No change
- expression levels of Gli1 in femurs (IHC) ([4]; mice treated P12 to P16, compared with Vehicle): no alteration

Source: article PMC9691367, “The PROTAC selectively degrading Bcl-xL represents a novel Hedgehog pathway inhibitor with capacity of combating resistance to Smoothened inhibitors while sparing bone growth” (Theranostics, 2022)
